The target of one assay is cathepsin L (Homo sapiens, UniProt P07711). Description: FRET enzymatic assay. Format: biochemical.
Assay [1] addresses T1, MERS-CoV M^pro (Human betacoronavirus 2c EMC/2012, UniProt K0BWD0). Format: biochemical. The note with it: read-out: KI.
The target of assay [2] is T1, MERS-CoV M^pro. The assay is described as follows: biochemical.

Read-outs that look alike come from different tables or passages of the source.

cathepsin L, sequence (P07711 114-288): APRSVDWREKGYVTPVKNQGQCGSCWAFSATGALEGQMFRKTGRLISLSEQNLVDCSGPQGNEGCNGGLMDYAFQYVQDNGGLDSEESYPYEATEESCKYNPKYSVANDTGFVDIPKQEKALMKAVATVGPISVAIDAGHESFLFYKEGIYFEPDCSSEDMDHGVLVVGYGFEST
cathepsin L, sequence (P07711 292-333): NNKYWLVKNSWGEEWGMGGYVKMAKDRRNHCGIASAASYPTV
T1 sequence (K0BWD0 3248-3553 limits assumed): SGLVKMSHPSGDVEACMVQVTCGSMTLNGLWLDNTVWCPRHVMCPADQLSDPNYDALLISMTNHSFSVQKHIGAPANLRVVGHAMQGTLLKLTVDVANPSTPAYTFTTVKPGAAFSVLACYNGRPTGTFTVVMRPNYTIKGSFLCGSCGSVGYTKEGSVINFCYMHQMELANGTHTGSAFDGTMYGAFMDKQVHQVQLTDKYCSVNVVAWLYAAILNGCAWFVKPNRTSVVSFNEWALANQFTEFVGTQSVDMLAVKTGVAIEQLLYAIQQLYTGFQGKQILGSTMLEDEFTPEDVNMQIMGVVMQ

As to `CC(C)C[C@H](NC(=O)[C@@H]1O[C@H]1C(=O)O)C(=O)NCCCCN=C(N)N` [E-64, reference compound], the IC50 – broadly, the concentration that gives 50% inhibition – against cathepsin L turned out to be 0.00545 µM.

For `CC(C)(C)NC(=O)N[C@H](C(=O)N1C[C@H]2[C@@H]([C@H]1C(=O)NC(CC1CCC1)C(=O)C(N)=O)C2(C)C)C(C)(C)C` (some centres unmarked) [boceprevir], the KI (inactivation) at MERS-CoV M^pro [1] came to 1.65 ± 0.12 µM. The concentration for half-maximal inhibition (IC50) at cathepsin L came out at 0.153 µM.

Take `CCCC(NC(=O)[C@H](CC(C)C)NC(=O)OCc1ccccc1)C(=O)C(=O)NCc1ccccn1` (some centres unmarked) [calpain inhibitor XII]: affinity at MERS-CoV M^pro [2] was put at a Ki of 1.32 ± 0.07 µM. For the same compound, the IC50 entry against cathepsin L (individual value only in figure) is “calpain inhibitors II and XII and GC-376 had potent inhibition against cathepsin L”.

For the origin of these results see paper PMC7944397 (ACS infectious diseases, 2021).
